{"source": "paper PMC3747596", "about": "(PLoS ONE, 2013)", "key": {"α1A-AR [1]": {"target": "T1, α1A-AR (Homo sapiens, UniProt P35348)", "T1 sequence (P35348 1-466)": "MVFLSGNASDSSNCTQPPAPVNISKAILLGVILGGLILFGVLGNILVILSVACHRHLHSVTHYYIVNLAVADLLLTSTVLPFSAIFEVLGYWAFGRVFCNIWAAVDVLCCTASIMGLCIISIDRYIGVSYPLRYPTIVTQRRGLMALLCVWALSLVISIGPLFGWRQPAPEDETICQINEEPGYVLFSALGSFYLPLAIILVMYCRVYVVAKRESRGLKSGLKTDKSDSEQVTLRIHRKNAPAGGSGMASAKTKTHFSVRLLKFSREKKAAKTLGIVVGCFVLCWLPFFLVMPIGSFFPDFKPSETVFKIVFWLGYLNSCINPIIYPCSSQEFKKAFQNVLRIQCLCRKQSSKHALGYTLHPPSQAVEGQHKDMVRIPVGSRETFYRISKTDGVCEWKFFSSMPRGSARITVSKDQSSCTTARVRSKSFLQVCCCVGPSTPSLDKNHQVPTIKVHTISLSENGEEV", "assay": "Intracellular calcium mobilization assay, α1A-AR"}, "M1-R": {"target": "M1-R (Homo sapiens, UniProt P11229)", "sequence (P11229 whole entry)": "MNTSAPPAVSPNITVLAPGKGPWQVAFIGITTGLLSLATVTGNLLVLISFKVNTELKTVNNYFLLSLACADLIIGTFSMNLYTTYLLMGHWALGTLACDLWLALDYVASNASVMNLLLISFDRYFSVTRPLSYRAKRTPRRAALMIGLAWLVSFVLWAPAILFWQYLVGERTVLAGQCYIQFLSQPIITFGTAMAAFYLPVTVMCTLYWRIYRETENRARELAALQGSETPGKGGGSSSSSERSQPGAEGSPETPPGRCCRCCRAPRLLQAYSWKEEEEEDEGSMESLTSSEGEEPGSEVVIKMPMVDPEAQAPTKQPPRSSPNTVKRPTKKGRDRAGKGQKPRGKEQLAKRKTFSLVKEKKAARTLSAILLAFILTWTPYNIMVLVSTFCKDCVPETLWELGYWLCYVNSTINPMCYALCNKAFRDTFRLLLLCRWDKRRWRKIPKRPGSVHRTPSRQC"}, "α1A-AR [2]": {"target": "T1, α1A-AR", "assay": "PI hydrolysis assay, α1A-AR", "details": "hydrolysis of phosphatidylinositol 4,5-bisphosphate (PI)"}, "μ opioid receptor": {"target": "T2, μ opioid receptor (Homo sapiens, UniProt P35372)", "T2 construct": "expressed in transfected cells", "T2 sequence (P35372 whole entry)": "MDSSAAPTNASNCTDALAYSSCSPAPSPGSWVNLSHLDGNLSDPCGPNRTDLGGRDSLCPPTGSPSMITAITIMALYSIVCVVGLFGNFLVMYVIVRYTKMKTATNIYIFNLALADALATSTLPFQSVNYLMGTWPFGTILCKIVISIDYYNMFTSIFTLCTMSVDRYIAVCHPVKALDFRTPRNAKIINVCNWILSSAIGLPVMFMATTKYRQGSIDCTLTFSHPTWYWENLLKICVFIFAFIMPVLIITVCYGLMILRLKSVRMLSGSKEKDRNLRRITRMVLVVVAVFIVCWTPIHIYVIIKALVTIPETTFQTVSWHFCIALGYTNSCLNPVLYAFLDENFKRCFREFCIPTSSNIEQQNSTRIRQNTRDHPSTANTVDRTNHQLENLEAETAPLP", "assay": "Radioligand displacement, μ", "type": "binding"}, "[3]": {"target": "noradrenaline transporter (NET) (Homo sapiens, UniProt P23975)", "sequence (P23975 whole entry)": "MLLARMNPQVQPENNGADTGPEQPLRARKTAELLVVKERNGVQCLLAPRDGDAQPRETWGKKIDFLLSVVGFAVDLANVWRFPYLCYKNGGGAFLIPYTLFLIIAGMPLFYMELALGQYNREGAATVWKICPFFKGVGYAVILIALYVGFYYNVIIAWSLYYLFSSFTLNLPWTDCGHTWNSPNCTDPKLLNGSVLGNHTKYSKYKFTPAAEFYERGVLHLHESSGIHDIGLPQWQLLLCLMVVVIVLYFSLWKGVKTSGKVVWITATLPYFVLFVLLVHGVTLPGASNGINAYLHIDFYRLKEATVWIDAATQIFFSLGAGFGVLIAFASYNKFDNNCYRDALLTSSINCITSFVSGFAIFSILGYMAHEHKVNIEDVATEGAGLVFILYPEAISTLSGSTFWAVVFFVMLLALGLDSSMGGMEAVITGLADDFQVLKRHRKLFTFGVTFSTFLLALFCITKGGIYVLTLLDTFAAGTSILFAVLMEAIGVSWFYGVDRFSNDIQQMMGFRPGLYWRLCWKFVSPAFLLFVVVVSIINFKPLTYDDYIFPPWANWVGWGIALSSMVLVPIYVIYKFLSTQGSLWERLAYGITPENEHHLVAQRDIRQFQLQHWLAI", "assay": "Inhibition of noradrenaline transporter, fluorescent dye uptake", "type": "cell-based", "details": "95% CI = 0.5 to 2.6 µM; read-out: IC50, inhibition of noradrenaline transport"}, "human NOP": {"target": "T3, human NOP (Homo sapiens, UniProt P41146)", "T3 construct": "expressed in transfected cells; host or cells: HEK293T", "T3 sequence (P41146 whole entry)": "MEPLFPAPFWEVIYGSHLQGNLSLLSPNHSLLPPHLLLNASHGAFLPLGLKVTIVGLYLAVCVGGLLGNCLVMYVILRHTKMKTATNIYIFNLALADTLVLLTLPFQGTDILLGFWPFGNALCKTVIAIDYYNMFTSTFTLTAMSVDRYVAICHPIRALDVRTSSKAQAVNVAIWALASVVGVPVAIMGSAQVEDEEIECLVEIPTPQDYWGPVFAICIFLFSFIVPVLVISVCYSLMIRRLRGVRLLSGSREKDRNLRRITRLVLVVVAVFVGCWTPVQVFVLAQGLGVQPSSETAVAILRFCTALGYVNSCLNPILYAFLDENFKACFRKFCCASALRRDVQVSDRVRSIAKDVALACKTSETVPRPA", "assay": "Inhibition of cyclic AMP production by N/OFQ, GloSensor assay in HEK293T cells", "type": "cell-based"}, "[4]": {"target": "N-methyl-D-aspartate (NMDA) receptor", "design": "method as in PMID 7681005", "details": "[3H]CGP-39,653, glutamate site; cited from earlier work"}, "[5]": {"system": "nociceptin/orphanin FQ receptor (NOP)", "design": "method as in PMID 11510482", "details": "at 10 µM; cited from earlier work"}}}
{"compound": "N=C(N)Nc1ccc2[nH]c3c(c2c1)C[C@@]1(O)[C@H]2Cc4ccc(O)c5c4[C@@]1(CCN2CC1CC1)[C@H]3O5", "note": "[GNTI, 5′-guanidinonaltrindole]", "values": [{"measurement": "EC50", "setting": "α1A-AR [1]", "value": 41, "unit": "nM"}, {"measurement": "activation of α1A-AR / inhibition of activation by noradrenaline", "setting": "α1A-AR [1]; calcium mobilization, GNTI 30 µM", "value": "neither activated α1A-AR nor inhibited activation by noradrenaline"}, {"measurement": "Emax", "setting": "α1A-AR [1]; read-out: increase of the maximal response to noradrenaline", "value": "≤ 20", "unit": "%"}, {"measurement": "K B", "setting": "M1-R; antagonism of acetylcholine, calcium mobilization, 95% CI = 3.2 to 4.3 µM", "value": 3.7, "unit": "µM"}, {"measurement": "activation of M1-R", "setting": "M1-R; calcium mobilization", "value": "did not activate M1-R"}, {"measurement": "selectivity for κ-OR over M1-R", "setting": "M1-R; functional potency at κ-OR (ref 3) versus K B at M1-R", "value": "> 3,000 fold"}, {"measurement": "effect on maximal response to noradrenaline, PI hydrolysis", "setting": "α1A-AR [2]", "value": "slightly reduced the maximal response to noradrenaline"}, {"measurement": "Ki", "setting": "μ opioid receptor", "value": 54, "unit": "nM"}]}
{"compound": "CC(C)[C@@H](CN1CC[C@@](C)(c2cccc(O)c2)[C@@H](C)C1)NC(=O)[C@H]1Cc2ccc(O)cc2CN1", "note": "[JDTic]", "values": [{"measurement": "IC50", "setting": "[3]", "value": 1100, "unit": "nM"}, {"measurement": "K B equivalent to the pA2 for a competitive antagonist", "setting": "human NOP; 95% CI = 4.6 to 1,200 nM", "value": 73, "unit": "nM"}, {"measurement": "effect on maximally-effective concentrations of N/OFQ (>100 nM)", "setting": "human NOP; JDTic 30 µM", "value": "not affected"}, {"measurement": "Kb", "setting": "human NOP; antagonism of N/OFQ, inhibition of cyclic AMP production, read-out: pA2 (converted)", "value": 79.4, "unit": "nM"}]}
{"compound": "Oc1ccc2c3c1O[C@H]1c4[nH]c5c(c4C[C@@]4(O)[C@@H](C2)N(CC2CC2)CC[C@]314)C[C@@]1(O)[C@H]2Cc3ccc(O)c4c3[C@@]1(CCN2CC1CC1)[C@H]5O4", "note": "[nor-BNI, Nor-binaltorphimine]", "values": [{"measurement": "Ki", "setting": "[4]", "value": "> 1000", "unit": "nM"}, {"measurement": "binding to NOP", "setting": "[5]", "value": "no binding"}]}
